31 compounds from patent US12570675B2, “Boronic acid compounds” (LG CHEM, LTD., priority 2020, dated 2026) can be followed below.

SMILES strings stand for the structures.

The target of the test is Proteasome chymotrypsin-like activity (S26 protein from RPMI8226 cells) (Homo sapiens, UniProt P28074). Format: biochemical. To be noted: S26 protein from RPMI8226 cell extract 2 ug/well, substrate 20 uM, 37° C., 90 minutes; read-out: Proteasome chymotrypsin-like activity inhibition IC50. In a few lines:
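RPMI8226 myeloma cell lysate (S26 fraction, 20 mM Tris-HCl pH 8.0; 2 ug/well) incubated with compound serially diluted from 10 uM (0.5% DMSO) and 20 uM Suc-LLVY-AMC (chymotrypsin-like) or Z-LLE-AMC (caspase-like) for 90 min at 37 °C. Fluorescence read; IC50 from % of uninhibited signal.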

Chain of Proteasome chymotrypsin-like activity (S26 protein from RPMI8226 cells) (P28074 60-263 limits assumed): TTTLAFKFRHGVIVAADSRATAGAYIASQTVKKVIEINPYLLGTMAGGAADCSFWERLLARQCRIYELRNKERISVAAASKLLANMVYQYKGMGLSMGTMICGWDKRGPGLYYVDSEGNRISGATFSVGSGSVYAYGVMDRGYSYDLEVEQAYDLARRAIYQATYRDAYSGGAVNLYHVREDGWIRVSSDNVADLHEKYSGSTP

As to `O=C(N[C@@H](Cc1ccccc1)B(O)O)C1(Cc2ccccc2)CC(COc2ccc3ccccc3c2)=NO1` (stereo partly drawn) [Example 263, ((1R)-1-(5-benzyl-3-((naphthalen-2-yloxy)methyl)-4,5-dihydroisoxazol-5-carboxamido)-2-phenylethyl)boronic acid], the IC50 (commonly the concentration at which inhibition is half-maximal) was less than 50 nM. In the case of `CC(C)C[C@H](NC(=O)C1(Cc2ccccc2)CC(C(C)(C)NC(=O)c2cccn3ccnc23)=NO1)B(O)O` (stereo partly drawn) [Example 158, ((1R)-1-(5-benzyl-3-(2-(imidazo[1,2-a]pyridin-8-carboxamido)propan-2-yl)-4,5-dihydroisoxazol-5-carboxamido)-3-methylbutyl)boronic acid] it was less than 100 nM; in that of `CC(C)[C@H](NC(=O)C1(Cc2ccccc2)CC(CNC(=O)c2nccc3ccccc23)=NO1)B(O)O` (stereo partly drawn) [Example 290, ((1R)-1-(5-benzyl-3-((isoquinolin-1-carboxamido)methyl)-4,5-dihydroisoxazol-5-carboxamido)-2-methylpropyl)boronic acid], less than 10 nM; in that of `COc1cccc(CC2(C(=O)N[C@@H](CC(C)C)B(O)O)CC(CNC(=O)c3cccn4ccnc34)=NO2)c1` (stereo partly drawn) [Example 135, ((1R)-1-(3-((imidazo[1,2-a]pyridin-8-carboxamido)methyl)-5-(3-methoxybenzyl)-4,5-dihydroisoxazol-5-carboxamido)-3-methylbutyl)boronic acid], less than 10 nM. As for `CC(C)C[C@H](NC(=O)C1(C(F)c2ccccc2)CC(CNC(=O)c2nccc3ccccc23)=NO1)B(O)O` (stereo partly drawn) [Example 114, ((1R)-1-(5-(fluoro(phenyl)methyl)-3-((isoquinolin-1-carboxamido)methyl)-4,5-dihydroisoxazol-5-carboxamido)-3-methylbutyl)boronic acid], the half-inhibitory concentration (IC50) was less than 10 nM. The result for `COc1cccc(CC2(C(=O)N[C@@H](CC(C)C)B(O)O)CC(CNC(=O)c3cc(C)nn3C3CCCC3)=NO2)c1` (stereo partly drawn) [Example 240, ((1R)-1-(3-((1-cyclopentyl-3-methyl-1H-pyrazol-5-carboxamido)methyl)-5-(3-methoxybenzyl)-4,5-dihydroisoxazol-5-carboxamido)-3-methylbutyl)boronic acid] reads less than 10 nM; that for `CC(C)C[C@H](NC(=O)C1CC(C(=O)NCc2cc(Cl)ccc2Cl)=NO1)B(O)O` (stereo partly drawn) [Example 75, ((1R)-1-(3-((2,5-dichlorobenzyl)carbamoyl)-4,5-dihydroisoxazol-5-carboxamido)-3-methylbutyl)boronic acid], less than 100 nM. For `CC(C)C[C@H](NC(=O)C1(Cc2ccccc2)CC(CNC(=O)c2cccc(-c3ccccn3)c2)=NO1)B(O)O` (stereo partly drawn) [Example 98, ((1R)-1-(5-benzyl-3-((3-(pyridin-2-yl)benzamido)methyl)-4,5-dihydroisoxazol-5-carboxamido)-3-methylbutyl)boronic acid], the IC50 is less than 10 nM. For `CC(C)C[C@H](NC(=O)C1CC(CCc2ccccc2)=NO1)B(O)O` (stereo partly drawn) [Example 11, ((1R)-3-methyl-1-(3-penetyl-4,5-dihydroisoxazol-5-carboxamido)butyl)boronic acid], the half-maximal inhibitory concentration (IC50) was less than 250 nM.

In the case of `Cc1cc(C(=O)NCC2=NOC(Cc3cccc(Cl)c3)(C(=O)N[C@@H](CC(C)C)B(O)O)C2)n(C(C)C)n1` (stereo partly drawn) [Example 225, ((1R)-1-(5-(3-chlorobenzyl)-3-((1-isopropyl-3-methyl-1H-pyrazol-5-carboxamido)methyl)-4,5-dihydroisoxazol-5-carboxamido)-3-methylbutyl)boronic acid], the IC50 is less than 10 nM. For the compound `CC(C)C[C@H](NC(=O)C1CC(c2ccccc2)=NO1)B(O)O` (stereo partly drawn) [Example 1, ((1R)-3-methyl-1-(3-phenyl-4,5-dihydroisoxazol-5-carboxamido)butyl)boronic acid], the half-inhibitory concentration (IC50) was less than 500 nM. As to `CC(C)C[C@H](NC(=O)C1(Cc2ccccc2)CC(CNC(=O)c2cc(C(C)C)nn2C(C)C)=NO1)B(O)O` (stereo partly drawn) [Example 227, ((1R)-1-(5-benzyl-3-((1,3-diisopropyl-1H-pyrazol-5-carboxamido)methyl)-4,5-dihydroisoxazol-5-carboxamido)-3-methylbutyl)boronic acid], the IC50 was less than 10 nM. The result for `CC(C)C[C@H](NC(=O)C1(Cc2ccccc2)CC(COCc2cc(Cl)ccc2Cl)=NO1)B(O)O` (stereo partly drawn) [Example 45, ((1R)-1-(5-benzyl-3-(((2,5-dichlorobenzyl)oxy)methyl)-4,5-dihydroisoxazol-5-carboxamido)-3-methylbutyl)boronic acid] reads less than 10 nM. As for `O=C(N[C@@H](Cc1ccccc1)B(O)O)C1(Cc2ccccc2)CC(COc2cccc(Cl)c2)=NO1` (stereo partly drawn) [Example 259, ((1R)-1-(5-benzyl-3-((3-chlorophenoxy)methyl)-4,5-dihydroisoxazol-5-carboxamido)-2-phenylethyl)boronic acid], the IC50 was less than 50 nM. Regarding `CC(C)C[C@H](NC(=O)C1(Cc2ccccc2)CC(CNC(=O)C2(c3ccccc3)CC2)=NO1)B(O)O` (stereo partly drawn) [Example 118, ((1R)-1-(5-benzyl-3-((1-phenylcyclopropan-1-carboxamido)methyl)-4,5-dihydroisoxazol-5-carboxamido)-3-methylbutyl)boronic acid], the IC50 was less than 25 nM. Take `CC(C)C[C@H](NC(=O)C1CC(C(=O)Nc2cccc3ccccc23)=NO1)B(O)O` (stereo partly drawn) [Example 76, ((1R)-3-methyl-1-(3-(naphthalen-1-ylcarbamoyl)-4,5-dihydroisoxazol-5-carboxamido)butyl)boronic acid]: the IC50 is less than 50 nM.

Consider `COc1ccccc1C(=O)NCC1=NOC(C(=O)N[C@@H](CC(C)C)B(O)O)C1` (stereo partly drawn) [Example 103, ((1R)-1-(3-((2-methoxybenzamido)methyl)-4,5-dihydroisoxazol-5-carboxamido)-3-methylbutyl)boronic acid], for which the IC50 was less than 50 nM. In the case of `CC(C)C[C@H](NC(=O)C1CC(c2ccc(C(C)(C)C)cc2)=NO1)B(O)O` (stereo partly drawn) [Example 15, ((1R)-1-(3-(4-(tert-butyl)phenyl)-4,5-dihydroisoxazol-5-carboxamido)-3-methylbutyl)boronic acid], the IC50 is less than 250 nM. Regarding `CC(C)C[C@H](NC(=O)C1(Cc2ccccc2)CC(CNC(=O)c2cocn2)=NO1)B(O)O` (stereo partly drawn) [Example 168, ((1R)-1-(5-benzyl-3-((oxazol-4-carboxamido)methyl)-4,5-dihydroisoxazol-5-carboxamido)-3-methylbutyl)boronic acid], the IC50 is less than 25 nM. As for `CC(C)C[C@H](NC(=O)C1CC(c2ccc(OC(F)(F)F)cc2)=NO1)B(O)O` (stereo partly drawn) [Example 38, ((1R)-3-methyl-1-(3-(4-(trifluoromethoxy)phenyl)-4,5-dihydroisoxazol-5-carboxamido)butyl)boronic acid], the concentration for half-maximal inhibition (IC50) is less than 500 nM. For `CC(C)C[C@H](NC(=O)C1(Cc2ccccc2)CC(CNC(=O)c2cc3ccccc3cn2)=NO1)B(O)O` (stereo partly drawn) [Example 121, ((1R)-1-(5-benzyl-3-((isoquinolin-3-carboxamido)methyl)-4,5-dihydroisoxazol-5-carboxamido)-3-methylbutyl)boronic acid], the IC50 is less than 10 nM. In the case of `CC(C)C[C@H](NC(=O)[C@]1(Cc2ccccc2)CC(c2ccccc2)=NO1)B(O)O` [Example 7, ((R)-1-((S)-5-benzyl-3-phenyl-4,5-dihydroisoxazol-5-carboxamido)-3-methylbutyl)boronic acid], the IC50 was less than 500 nM. As to `COc1ccc(C(=O)NCC2=NOC(Cc3ccccc3)(C(=O)N[C@@H](CC(C)C)B(O)O)C2)cc1` (stereo partly shown) [Example 282], the IC50 was less than 10 nM. On to `Cc1cccc(C(=O)NCC2=NOC(Cc3ccccc3)(C(=O)N[C@@H](CC(C)C)B(O)O)C2)c1` (stereo partly shown) [Example 307], for which the IC50 is less than 10 nM. Turning to `CC(C)C[C@H](NC(=O)C1(Cc2ccccc2)CC(CNC(=O)c2ccc(OC(C)C)c(C#N)c2)=NO1)B(O)O` (stereo partly drawn) [Example 123, [(1R)-1-[[5-benzyl-3-[[(3-cyano-4-isopropoxy-benzoyl)amino]methyl]-4H-1,2-oxazol-5-carbonyl]amino]-3-methyl-butyl]boronic acid], the IC50 was less than 10 nM. For the compound `CC[C@H](NC(=O)C1(Cc2ccccc2)CC(CNC(=O)c2cccc3ccccc23)=NO1)B(O)O` (stereo partly drawn) [Example 303, ((1R)-1-(3-((1-naphthamido)methyl)-5-benzyl-4,5-dihydroisoxazol-5-carboxamido)propyl)boronic acid], the IC50 is less than 10 nM. In the case of `CC(C)C[C@H](NC(=O)C1(C(C)C)CC(CNC(=O)c2cc(Cl)ccc2Cl)=NO1)B(O)O` (stereo partly drawn) [Example 89, ((1R)-1-(3-((2,5-dichlorobenzamido)methyl)-5-isopropyl-4,5-dihydroisoxazol-5-carboxamido)-3-methylbutyl)boronic acid], the IC50 is less than 100 nM. With `CC(C)C[C@H](NC(=O)C1(Cc2ccccc2)CC(COCc2cccc(Cl)c2)=NO1)B(O)O` (stereo partly shown) [Example 260], the IC50 was less than 50 nM.

`Cc1nn(C(C)C)c(C(=O)NCC2=NOC(Cc3ccccc3)(C(=O)N[C@@H](CC(C)C)B(O)O)C2)c1Cl` (stereo partly drawn) [Example 222, ((1R)-1-(5-benzyl-3-((4-chloro-1-isopropyl-3-methyl-1H-pyrazol-5-carboxamido)methyl)-4,5-dihydroisoxazol-5-carboxamido)-3-methylbutyl)boronic acid]: the IC50 is less than 10 nM. `Cc1cc(C(=O)NCC2=NOC(Cc3ccccc3)(C(=O)N[C@@H](CC(C)C)B(O)O)C2)n(C2CCOCC2)n1` (stereo partly drawn) [Example 218, ((1R)-1-(5-benzyl-3-((3-methyl-1-(tetrahydro-2H-pyran-4-yl)-1H-pyrazol-5-carboxamido)methyl)-4,5-dihydroisoxazol-5-carboxamido)-3-methylbutyl)boronic acid]: the IC50 is less than 10 nM. Take `CC(C)C[C@H](NC(=O)C1(Cc2cscn2)CC(CNC(=O)c2cccn3ccnc23)=NO1)B(O)O` (stereo partly drawn) [Example 150, ((1R)-1-(3-((imidazo[1,2-a]pyridin-8-carboxamido)methyl)-5-(thiazol-4-ylmethyl)-4,5-dihydroisoxazol-5-carboxamido)-3-methylbutyl)boronic acid]: the half-inhibitory concentration (IC50) was less than 10 nM.
